Two compounds from publication PMC1459859, “Display of a thermostable lipase on the surface of a solvent-resistant bacterium, Pseudomonas putida GM730, and its applications in whole-cell biocatalysis” (BMC Biotechnology, 2006) can be followed below.

For assay [1], the target named is T1, TliA (thermostable lipase), displayed as INPNC-TliA (Pseudomonas fluorescens, UniProt Q9ZG91).
T1 sequence (Q9ZG91 1-476): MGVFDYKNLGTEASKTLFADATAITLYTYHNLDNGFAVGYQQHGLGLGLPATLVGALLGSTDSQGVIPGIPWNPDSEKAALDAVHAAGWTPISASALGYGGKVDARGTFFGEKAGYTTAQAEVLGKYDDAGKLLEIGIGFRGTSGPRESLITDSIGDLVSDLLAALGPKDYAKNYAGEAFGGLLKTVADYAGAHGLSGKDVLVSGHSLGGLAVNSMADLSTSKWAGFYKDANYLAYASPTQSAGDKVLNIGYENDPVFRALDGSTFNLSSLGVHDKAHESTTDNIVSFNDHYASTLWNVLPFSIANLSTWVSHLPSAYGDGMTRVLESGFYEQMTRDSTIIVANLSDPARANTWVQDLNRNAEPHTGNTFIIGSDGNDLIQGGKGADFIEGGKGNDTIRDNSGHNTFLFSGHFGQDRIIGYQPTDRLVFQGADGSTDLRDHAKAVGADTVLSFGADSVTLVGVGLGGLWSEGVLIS
Kind of assay: whole-cell chiral resolution, HPLC. In kind it is cell-based. Conditions: INPNC-TliA displayed on P. putida GM730/pJHC13 cells; 50 mM racemic substrate; two-phase PBS-isooctane; 25 °C; 72 h; R-selective.

Assay [2] concerns the target T1, TliA (thermostable lipase), displayed as INPNC-TliA. Nature of the assay: whole-cell lipase activity, spectrophotometric. Conditions: INPNC-TliA displayed on P. putida GM730/pJHC13 cells; PBS-washed; induced with 1 mM IPTG. In kind it is cell-based.

For `CC(C(=O)Oc1ccc([N+](=O)[O-])cc1)c1ccccc1` (racemic) [4-nitrophenyl 2-phenylpropionate], the “whole-cell chiral resolution, HPLC” value in assay [1] was “enantiomeric excesses of the surviving p-nitrophenyl 2-phenylpropionate and the product (R) 2-phenylpropionic acid”.
In the case of `CCCCCCCCCCCCCCCC(=O)Oc1ccc([N+](=O)[O-])cc1` [p-nitrophenyl palmitate], the “whole-cell lipase activity, spectrophotometric” value in assay [2] is recorded as “whole-cell enzyme activities were measured with p-nitrophenyl palmitate (pNPP), which does not enter the cells”.
